For one data set, the system named is SLC40A1. The data set can be described thus: Gene expression of SLC40A1 in HepG2 cells exposed to compound (microarray, log2 treatment:control ratio). The settings on record: HepG2 cells; for Log2 treatment: control ratio SLC40A1: 24 h exposure, Ames negative compounds, one line per replicate of triplicate experiments; for SLC40A1: expression versus reference value, single measurement of three. Format: cell-based, human.

For data set [1], the system named is HepG2 cell. Description: Class prediction of in vivo genotoxicity by the method of the invention (Ames stratification plus three-gene expression in HepG2). The settings on record: 62 compounds, three replicates, HepG2 24 h.
For a further data set, the system named is C10orf65/HOGA1. Description: Gene expression of C10orf65/HOGA1 in HepG2 cells exposed to compound (microarray, log2 treatment:control ratio). Format: cell-based, human. The settings on record: for Log2 treatment: control ratio C10orf65/HOGA1: 24 h exposure, Ames negative compounds, one line per replicate of triplicate experiments; for C10orf65/HOGA1: expression versus reference value, single measurement of three.

The test system of the next data set is rodents. Conditions: cited from earlier work.
In a further data set the test system is Salmonella typhimurium. Conditions: cited from earlier work.
A further data set deals with PNMA6A. Description: Gene expression of PNMA6A in HepG2 cells exposed to compound (microarray, log2 treatment:control ratio). Type of data set: cell-based, human. The settings on record: HepG2 cells; for Log2 treatment: control ratio PNMA6A: 24 h exposure, Ames negative compounds, one line per replicate of triplicate experiments; for PNMA6A: expression versus reference value, single measurement of three.

Data set [2] deals with conventional in vitro genotoxicity assays. The settings on record: cited from earlier work.
Data set [3] deals with HepG2 cell.
Where [4] appears, read: standard in vivo genotoxicity designation.

Where “and” joins values, the source holds several entries; their conditions need not be identical. Equal entries are not always repeated. Where two headings read alike, the source gives them in different places.

Turning to `CC1=CC(=O)[N-]S(=O)(=O)O1.[K+]` [ASK], in the data set on SLC40A1, the “Log2 treatment: control ratio SLC40A1” value was −0.348 and −0.221 and 0.08; the SLC40A1 entry is listed as “− (below the reference value)”. The “Prediction (class prediction results using the method of the invention)” value (“Prediction” for short) with HepG2 cell [1] is reported as “NGTX”. Also, in the data set on C10orf65/HOGA1, the “Log2 treatment: control ratio C10orf65/HOGA1” value is 0.014 and −0.015 and 0.083; the C10orf65/HOGA1 result was “− (below the reference value)”. Also, the Standard entry with rodents (setting [4]) was “NGTX”. For the same compound, in the data set on Salmonella typhimurium, the Ames result is reported as “−”. For the same compound, the “Log2 treatment: control ratio PNMA6A” value in the data set on PNMA6A is 0.264 and 0.161 and −0.677. For the same compound, in data set [2], the “In vitro GTX” value is “−”.

For `Nc1ccccc1C(=O)O` [AnAc], in the data set on SLC40A1 (listed as AA), the “Log2 treatment: control ratio SLC40A1” value is −0.174 and −0.49 and 0.007. Also, the SLC40A1 result in the data set with SLC40A1 is reported as “− (below the reference value)”. Besides, the “Prediction” value with HepG2 cell [1] was “NGTX”. Further, the “Log2 treatment: control ratio C10orf65/HOGA1” value in the data set with C10orf65/HOGA1 (listed as AA) is −0.045 and −0.061 and 0.002. For the same compound, the C10orf65/HOGA1 entry with C10orf65/HOGA1 is listed as “− (below the reference value)”. The Standard entry in the data set with rodents (setting [4]) is “NGTX”. In the data set with Salmonella typhimurium, the Ames entry was “−”. In the data set with PNMA6A (listed as AA), the “Log2 treatment: control ratio PNMA6A” value is 0.167 and −0.628 and 0.562. Moreover, in data set [2], the “In vitro GTX” value is on record as “+”.

In the case of `Clc1ccc(C(c2ccc(Cl)cc2)C(Cl)(Cl)Cl)cc1` [DDT], in the data set on SLC40A1, the “Log2 treatment: control ratio SLC40A1” value was 0.685 and 0.118 and 0.493. Also, the “Prediction” value with HepG2 cell [1] is reported as “NGTX”. The “Log2 treatment: control ratio C10orf65/HOGA1” value in the data set on C10orf65/HOGA1 is −0.925 and 0.469 and −0.025. Also, the Standard entry in the data set with rodents (setting [4]) is “NGTX”. Moreover, in the data set with Salmonella typhimurium, the Ames result is “−”. In addition, in the data set with PNMA6A, the “Log2 treatment: control ratio PNMA6A” value is −0.223 and 0.118 and −0.515; the PNMA6A result is recorded as “− (below the reference value)”. In addition, the “In vitro GTX” value in data set [2] was “−”.

Consider `CC/C(=C(/CC)c1ccc(O)cc1)c1ccc(O)cc1` [DES], for which, in the data set on SLC40A1, the “Log2 treatment: control ratio SLC40A1” value is 1.504 and 0.717 and 0.723; the SLC40A1 entry is “+ (above the reference value)”. For the same compound, in the data set on C10orf65/HOGA1, the “Log2 treatment: control ratio C10orf65/HOGA1” value was 0.146 and 0.516 and 0.206; the C10orf65/HOGA1 result was “+ (above the reference value)”. In the data set with rodents (in vivo), the “In vivo GTX” value was “+” and the Standard entry is “GTX”. In addition, in the data set with Salmonella typhimurium (Ames results based on NTP data), the Ames entry was “−”. The “Log2 treatment: control ratio PNMA6A” value in the data set on PNMA6A was 0.286 and 0.203 and 0.135. Also, in the data set on HepG2 cell [3], the “At least ⅔ genes +?” value is recorded as “GTX”, the “Average result over three measurements” value is reported as “GTX” and the “Prediction” value was “GTX”. In data set [2], the “In vitro GTX” value is “+”.

As for `CCOP(=S)(OCC)Oc1cc(C)nc(C(C)C)n1` [DZN], in the data set on SLC40A1, the “Log2 treatment: control ratio SLC40A1” value is 0.569 and 0.773 and 1.44; the SLC40A1 entry is recorded as “+ (above the reference value)”. For the same compound, the “Prediction” value in the data set with HepG2 cell [1] is “NGTX”. Also, in the data set on C10orf65/HOGA1, the “Log2 treatment: control ratio C10orf65/HOGA1” value is −1.12 and −0.738 and −1.077; the C10orf65/HOGA1 result is on record as “− (below the reference value)”. In the data set on rodents (setting [4]), the Standard result is on record as “NGTX”. Further, in the data set on Salmonella typhimurium, the Ames result is “−”. In the data set with PNMA6A, the “Log2 treatment: control ratio PNMA6A” value was −0.352 and −0.624 and −0.03; the PNMA6A entry was “− (below the reference value)”. In addition, the “In vitro GTX” value in data set [2] was “−”.

In the case of `OC[C@@H](O)[C@@H](O)[C@H](O)[C@H](O)CO` [Dman], in the data set on SLC40A1, the “Log2 treatment: control ratio SLC40A1” value is 0.005 and −0.155 and −0.035; the SLC40A1 result is “− (below the reference value)”. Also, the “Prediction” value in the data set with HepG2 cell [1] is given as “NGTX”. Also, in the data set with C10orf65/HOGA1, the “Log2 treatment: control ratio C10orf65/HOGA1” value is 0.022 and −0.159 and 0.023; the C10orf65/HOGA1 entry is listed as “− (below the reference value)”. In the data set on rodents (setting [4]), the Standard result is given as “NGTX”. Moreover, the Ames result with Salmonella typhimurium is “−”. In addition, the “Log2 treatment: control ratio PNMA6A” value with PNMA6A is −0.035 and 0.459 and 0.01. In data set [2], the “In vitro GTX” value is listed as “−”.

Consider `C[C@]12CC[C@@H]3c4ccc(O)cc4CC[C@H]3[C@@H]1CC[C@@H]2O` [E2, Estradiol], for which the SLC40A1 result in the data set on SLC40A1 is recorded as “− (below the reference value)”. Also, the “Prediction” value in the data set with HepG2 cell [1] is listed as “NGTX”. Besides, the PNMA6A result in the data set on PNMA6A is recorded as “− (below the reference value)”.

With `C=CCc1ccc(O)c(OC)c1` [EuG], the “Log2 treatment: control ratio SLC40A1” value in the data set with SLC40A1 was 0.161 and 0.712 and 0.293. In addition, in the data set with C10orf65/HOGA1, the “Log2 treatment: control ratio C10orf65/HOGA1” value was −0.156 and 0.3 and −0.066. Further, in the data set on rodents (in vivo), the “In vivo GTX” value is given as “−” and the Standard result was “NGTX”. Besides, in the data set with Salmonella typhimurium (Ames results based on NTP data), the Ames result is listed as “−”. Further, in the data set on PNMA6A, the “Log2 treatment: control ratio PNMA6A” value was 0.39 and 0.124 and 0.031. In addition, in the data set with HepG2 cell [3], the “Average result over three measurements” value is on record as “NGTX” and the “Prediction” value is recorded as “NGTX+”. In addition, the “In vitro GTX” value in data set [2] is given as “+”.

Consider `COC(=O)[C@H]1[C@H]2C[C@@H]3c4[nH]c5cc(OC)ccc5c4CCN3C[C@H]2C[C@@H](OC(=O)c2cc(OC)c(OC)c(OC)c2)[C@@H]1OC` [Res], for which the “Log2 treatment: control ratio SLC40A1” value with SLC40A1 was 0.398 and −0.212 and −0.057. Also, in the data set with C10orf65/HOGA1, the “Log2 treatment: control ratio C10orf65/HOGA1” value is 0.047 and 6.45E−05 and −0.043; the C10orf65/HOGA1 result was “− (below the reference value)”. In the data set on rodents (in vivo), the “In vivo GTX” value is on record as “−” and the Standard entry was “NGTX”. For the same compound, the Ames result in the data set on Salmonella typhimurium (Ames results based on NTP data) is “−”. Further, the “Log2 treatment: control ratio PNMA6A” value in the data set with PNMA6A is 0.09 and −0.624 and 0.288. For the same compound, in the data set with HepG2 cell [3], the “At least ⅔ genes +?” value was “NGTX”, the “Average result over three measurements” value is listed as “NGTX” and the “Prediction” value is on record as “NGTX”. In data set [2], the “In vitro GTX” value is given as “−”.

`CCNc1nc(Cl)nc(NCC)n1` [Sim]: in the data set with SLC40A1, the “Log2 treatment: control ratio SLC40A1” value was −0.601 and −0.1 and −0.245; the SLC40A1 entry is listed as “− (below the reference value)”. Moreover, the “Log2 treatment: control ratio C10orf65/HOGA1” value in the data set with C10orf65/HOGA1 is 0.22 and 0.14 and 0.155. Moreover, in the data set on rodents (in vivo), the “In vivo GTX” value is given as “−” and the Standard entry is recorded as “NGTX”. Besides, the Ames entry with Salmonella typhimurium (Ames results based on NTP data) is given as “−”. Further, in the data set on PNMA6A, the “Log2 treatment: control ratio PNMA6A” value was 0.246 and 0.186 and 0.202; the PNMA6A entry was “− (below the reference value)”. Also, in the data set with HepG2 cell [3], the “At least ⅔ genes +?” value was “NGTX”, the “Average result over three measurements” value is “NGTX”, the “Classification of NGTX compounds by the method of the invention (false positives)” value is “misclassification” and the “Prediction” value was “NGTX”. The “In vitro GTX” value in data set [2] is “−”.

Consider `Cc1cccc(Nc2cc(Cl)nc(SCC(=O)O)n2)c1C` [WY], for which, in the data set with SLC40A1, the “Log2 treatment: control ratio SLC40A1” value is −0.312 and −0.393 and −0.643; the SLC40A1 entry is given as “− (below the reference value)”. Also, in the data set on C10orf65/HOGA1, the “Log2 treatment: control ratio C10orf65/HOGA1” value is −0.061 and −0.158 and −0.053; the C10orf65/HOGA1 result is “− (below the reference value)”. Also, in the data set with rodents (in vivo), the “In vivo GTX” value is reported as “−” and the Standard result is “NGTX”. In the data set with Salmonella typhimurium (Ames results based on NTP data), the Ames entry is listed as “−”. Further, in the data set with PNMA6A, the “Log2 treatment: control ratio PNMA6A” value was 0.059 and −0.515 and 1.157. In the data set on HepG2 cell [3], the “At least ⅔ genes +?” value is given as “NGTX”, the “Average result over three measurements” value is “NGTX” and the “Prediction” value is given as “NGTX”. Further, the “In vitro GTX” value in data set [2] is on record as “−”.

Source of the values: patent US9822414B2, “In vitro method for predicting in vivo genotoxicity of chemical compounds” (priority 2011, dated 2017).
